Legend:
Test in all cases: Test D controlled growth environment herbicide test, pre- and postemergence
Format in all cases: in vivo
[1] = tested on: pigweed (Amaranthus retroflexus); settings: for Pigweed plant response rating / Plant response rating (scale of 0 to 100), Pigweed: 31 g ai/ha
Method in brief: (§1)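 Species sown in silt loam and sprayed preemergence, or grown in peat-based medium to 2–18 cm (1- to 4-leaf stage) and sprayed postemergence, with compounds in non-phytotoxic solvent plus surfactant. Visual injury scored versus controls after 14–21 d in a controlled environment, 0 (no effect) to 100 (complete control).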

[2] = tested on: ryegrass, Italian (Italian ryegrass, Lolium multiflorum); settings: for Ryegrass, Italian plant response rating / Plant response rating (scale of 0 to 100), Ryegrass, Italian: 31 g ai/ha
Method in brief: as §1

[3] = tested on: blackgrass (Alopecurus myosuroides); settings: for Blackgrass plant response rating / Plant response rating (scale of 0 to 100), Blackgrass: 31 g ai/ha
Method in brief: as §1

[4] = tested on: field poppy (Papaver rhoeas); settings: for Field Poppy plant response rating / Plant response rating (scale of 0 to 100), Field Poppy: 31 g ai/ha
Method in brief: as §1

[5] = tested on: wheat, winter (winter wheat, Triticum aestivum); settings: for Wheat, Winter plant response rating / Plant response rating (scale of 0 to 100), Wheat, Winter: 31 g ai/ha
Method in brief: as §1

[6] = tested on: canarygrass (Phalaris minor); settings: for Canarygrass plant response rating / Plant response rating (scale of 0 to 100), Canarygrass: 31 g ai/ha
Method in brief: as §1

[7] = tested on: galium (catchweed bedstraw, Galium aparine); settings: for Galium plant response rating / Plant response rating (scale of 0 to 100), Galium: 31 g ai/ha
Method in brief: as §1

[8] = tested on: chickweed (common chickweed, Stellaria media); settings: for Chickweed plant response rating / Plant response rating (scale of 0 to 100), Chickweed: 31 g ai/ha
Method in brief: as §1

[9] = tested on: buckwheat, wild (wild buckwheat, Polygonum convolvulus); settings: for Buckwheat, Wild plant response rating / Plant response rating (scale of 0 to 100), Buckwheat, Wild: 31 g ai/ha
Method in brief: as §1

[10] = tested on: bluegrass (annual bluegrass, Poa annua); settings: for Bluegrass plant response rating / Plant response rating (scale of 0 to 100), Bluegrass: 31 g ai/ha
Method in brief: as §1

[11] = tested on: foxtail, green (green foxtail, Setaria viridis); settings: for Foxtail, Green plant response rating / Plant response rating (scale of 0 to 100), Foxtail, Green: 31 g ai/ha
Method in brief: as §1

[12] = tested on: Russian thistle (Salsola kali); settings: for Russian Thistle plant response rating / Plant response rating (scale of 0 to 100), Russian Thistle: 31 g ai/ha
Method in brief: as §1

kochia (Kochia scoparia) = settings: for Kochia plant response rating / Plant response rating (scale of 0 to 100), Kochia: 31 g ai/ha
Method in brief: as §1

[13] = Postemergence, scale 0 to 100 (0 no effect, 100 complete control)
[14] = Postemergence, 125 g ai/ha, visual rating on scale 0 (no effect) to 100 (complete control), 14 to 21 d
[15] = Postemergence, 250 g ai/ha, scale 0 to 100 (0 no effect, 100 complete control)
[16] = Preemergence, 62 g ai/ha, scale 0 to 100 (0 no effect, 100 complete control)
[17] = Preemergence, 125 g ai/ha, scale 0 to 100 (0 no effect, 100 complete control)
[18] = Preemergence, 250 g ai/ha, scale 0 to 100 (0 no effect, 100 complete control)
[19] = postemergence, 62 g ai/ha, scale 0 to 100, 0 no effect, 100 complete control

CCOC(=O)Oc1c(C)nn(C)c(=O)c1-c1c(C)ccc2ccccc12 [Compound 73]
40: Plant response rating, Wheat, Winter [5, 16] | Plant response rating (scale of 0 to 100), Galium ([7]; Preemergence) | Plant response rating, Russian Thistle [12, 17]
80: Plant response rating, Blackgrass [3, 14] | Plant response rating, Blackgrass [3, 17] | Plant response rating, Canarygrass [6, 14] | Plant response rating (scale of 0 to 100), Canarygrass ([6]; Preemergence) | Plant response rating, Galium [7, 16] | Plant response rating, Galium [7, 17] | Plant response rating, Foxtail, Green [11, 15] | Plant response rating, Russian Thistle [12, 14] | Plant response rating, Russian Thistle [12, 19] | Plant response rating, Kochia (kochia (Kochia scoparia); [19])
85: Plant response rating, Ryegrass, Italian [2, 19] | Plant response rating, Blackgrass [3, 18] | Plant response rating, Canarygrass [6, 16] | Plant response rating, Russian Thistle [12, 15] | Plant response rating, Kochia (kochia (Kochia scoparia); [17])
100: Pigweed plant response rating [1, 13] | Plant response rating, Pigweed [1, 14] | Plant response rating, Pigweed [1, 15] | Plant response rating, Pigweed [1, 16] | Plant response rating, Pigweed [1, 17] | Plant response rating, Pigweed [1, 18] | Plant response rating, Pigweed [1, 19] | Plant response rating, Ryegrass, Italian [2, 16] | Plant response rating, Ryegrass, Italian [2, 17] | Plant response rating, Ryegrass, Italian [2, 18] | Plant response rating, Field Poppy [4, 14] | Plant response rating, Field Poppy [4, 15] | Plant response rating, Field Poppy [4, 16] | Plant response rating, Field Poppy [4, 17] | Plant response rating, Field Poppy [4, 18] | Plant response rating, Field Poppy [4, 19] | Plant response rating, Canarygrass [6, 18] | Plant response rating, Galium [7, 14] | Plant response rating, Galium [7, 15] | Plant response rating, Galium [7, 19] | Plant response rating, Chickweed [8, 14] | Plant response rating, Chickweed [8, 15] | Plant response rating, Chickweed [8, 17] | Plant response rating, Chickweed [8, 18] | Plant response rating, Buckwheat, Wild [9, 14] | Plant response rating, Buckwheat, Wild [9, 15] | Plant response rating, Buckwheat, Wild [9, 19] | Plant response rating, Foxtail, Green [11, 18] | Kochia plant response rating (kochia (Kochia scoparia); [13]) | Plant response rating, Kochia (kochia (Kochia scoparia); [14]) | Plant response rating, Kochia (kochia (Kochia scoparia); [15])
10: Plant response rating (scale of 0 to 100), Russian Thistle ([12]; Preemergence)
50: Plant response rating (scale of 0 to 100), Blackgrass ([3]; Preemergence) | Plant response rating, Wheat, Winter [5, 17] | Plant response rating, Foxtail, Green [11, 17]
95: Plant response rating, Ryegrass, Italian [2, 14] | Plant response rating (scale of 0 to 100), Ryegrass, Italian ([2]; Preemergence) | Galium plant response rating [7, 13] | Plant response rating (scale of 0 to 100), Chickweed ([8]; Preemergence) | Plant response rating, Chickweed [8, 19] | Buckwheat, Wild plant response rating [9, 13] | Plant response rating, Kochia (kochia (Kochia scoparia); [18])
98: Plant response rating, Ryegrass, Italian [2, 15]
55: Plant response rating, Bluegrass [10, 14]
60: Plant response rating, Blackgrass [3, 16] | Canarygrass plant response rating [6, 13] | Plant response rating, Buckwheat, Wild [9, 17]
70: Plant response rating (scale of 0 to 100), Pigweed ([1]; Preemergence) | Ryegrass, Italian plant response rating [2, 13] | Plant response rating, Blackgrass [3, 19] | Plant response rating (scale of 0 to 100), Field Poppy ([4]; Preemergence) | Plant response rating, Canarygrass [6, 19] | Plant response rating, Foxtail, Green [11, 19]
30: Plant response rating, Buckwheat, Wild [9, 18] | Plant response rating, Bluegrass [10, 18] | Plant response rating, Bluegrass [10, 19] | Plant response rating (scale of 0 to 100), Kochia (kochia (Kochia scoparia); Preemergence) | Plant response rating, Kochia (kochia (Kochia scoparia); [16])
25: Wheat, Winter plant response rating [5, 13] | Plant response rating, Russian Thistle [12, 16]
0: Plant response rating (scale of 0 to 100), Buckwheat, Wild ([9]; Preemergence) | Plant response rating, Buckwheat, Wild [9, 16]
20: Plant response rating, Foxtail, Green [11, 16]
15: Plant response rating (scale of 0 to 100), Wheat, Winter ([5]; Preemergence) | Bluegrass plant response rating [10, 13] | Plant response rating (scale of 0 to 100), Bluegrass ([10]; Preemergence) | Plant response rating (scale of 0 to 100), Foxtail, Green ([11]; Preemergence)
90: Plant response rating, Blackgrass [3, 15] | Plant response rating, Canarygrass [6, 15] | Plant response rating, Canarygrass [6, 17] | Plant response rating, Galium [7, 18] | Chickweed plant response rating [8, 13] | Plant response rating, Chickweed [8, 16]
35: Plant response rating, Wheat, Winter [5, 19] | Plant response rating, Bluegrass [10, 16] | Plant response rating, Bluegrass [10, 17]
65: Blackgrass plant response rating [3, 13] | Plant response rating, Wheat, Winter [5, 14] | Plant response rating, Bluegrass [10, 15] | Foxtail, Green plant response rating [11, 13]
75: Field Poppy plant response rating [4, 13] | Plant response rating, Wheat, Winter [5, 15] | Plant response rating, Wheat, Winter [5, 18] | Plant response rating, Foxtail, Green [11, 14] | Russian Thistle plant response rating [12, 13] | Plant response rating, Russian Thistle [12, 18]

COC(=O)Oc1c(C)nn(C)c(=O)c1-c1c(C)sc2c(C)cc(C)cc12 [Compound 81]
60: Plant response rating, Blackgrass [3, 16] | Plant response rating, Bluegrass [10, 18] | Kochia plant response rating (kochia (Kochia scoparia); [13])
25: Plant response rating (scale of 0 to 100), Galium ([7]; Preemergence) | Plant response rating, Kochia (kochia (Kochia scoparia); [17])
0: Wheat, Winter plant response rating [5, 13] | Plant response rating (scale of 0 to 100), Wheat, Winter ([5]; Preemergence) | Plant response rating, Wheat, Winter [5, 16] | Plant response rating, Wheat, Winter [5, 19] | Plant response rating, Buckwheat, Wild [9, 17] | Plant response rating (scale of 0 to 100), Bluegrass ([10]; Preemergence) | Plant response rating (scale of 0 to 100), Russian Thistle ([12]; Preemergence) | Plant response rating, Russian Thistle [12, 16] | Plant response rating (scale of 0 to 100), Kochia (kochia (Kochia scoparia); Preemergence) | Plant response rating, Kochia (kochia (Kochia scoparia); [16])
30: Plant response rating, Bluegrass [10, 14]
65: Plant response rating, Ryegrass, Italian [2, 16] | Blackgrass plant response rating [3, 13] | Plant response rating, Canarygrass [6, 16] | Plant response rating, Galium [7, 16] | Plant response rating, Foxtail, Green [11, 16]
75: Plant response rating, Blackgrass [3, 19] | Canarygrass plant response rating [6, 13] | Plant response rating (scale of 0 to 100), Canarygrass ([6]; Preemergence) | Plant response rating (scale of 0 to 100), Foxtail, Green ([11]; Preemergence) | Russian Thistle plant response rating [12, 13]
40: Plant response rating, Bluegrass [10, 15]
80: Plant response rating, Blackgrass [3, 14] | Foxtail, Green plant response rating [11, 13]
20: Plant response rating, Bluegrass [10, 17] | Plant response rating, Bluegrass [10, 19]
15: Plant response rating (scale of 0 to 100), Buckwheat, Wild ([9]; Preemergence) | Plant response rating, Buckwheat, Wild [9, 16] | Plant response rating, Buckwheat, Wild [9, 18] | Plant response rating, Russian Thistle [12, 17] | Plant response rating, Kochia (kochia (Kochia scoparia); [18])
10: Plant response rating, Bluegrass [10, 16]
5: Plant response rating, Wheat, Winter [5, 14] | Plant response rating, Wheat, Winter [5, 15] | Plant response rating, Wheat, Winter [5, 17] | Plant response rating, Wheat, Winter [5, 18] | Bluegrass plant response rating [10, 13]
95: Plant response rating (scale of 0 to 100), Pigweed ([1]; Preemergence) | Plant response rating, Ryegrass, Italian [2, 14] | Plant response rating, Ryegrass, Italian [2, 15] | Plant response rating, Canarygrass [6, 14] | Plant response rating, Canarygrass [6, 17] | Plant response rating, Galium [7, 18] | Plant response rating (scale of 0 to 100), Chickweed ([8]; Preemergence) | Plant response rating, Foxtail, Green [11, 14] | Plant response rating, Foxtail, Green [11, 19] | Plant response rating, Kochia (kochia (Kochia scoparia); [15])
90: Plant response rating, Ryegrass, Italian [2, 19] | Plant response rating, Russian Thistle [12, 14] | Plant response rating, Russian Thistle [12, 15] | Plant response rating, Kochia (kochia (Kochia scoparia); [14])
100: Pigweed plant response rating [1, 13] | Plant response rating, Pigweed [1, 14] | Plant response rating, Pigweed [1, 15] | Plant response rating, Pigweed [1, 16] | Plant response rating, Pigweed [1, 17] | Plant response rating, Pigweed [1, 18] | Plant response rating, Pigweed [1, 19] | Plant response rating, Ryegrass, Italian [2, 18] | Field Poppy plant response rating [4, 13] | Plant response rating, Field Poppy [4, 14] | Plant response rating, Field Poppy [4, 15] | Plant response rating (scale of 0 to 100), Field Poppy ([4]; Preemergence) | Plant response rating, Field Poppy [4, 16] | Plant response rating, Field Poppy [4, 17] | Plant response rating, Field Poppy [4, 18] | Plant response rating, Field Poppy [4, 19] | Plant response rating, Canarygrass [6, 15] | Plant response rating, Canarygrass [6, 18] | Galium plant response rating [7, 13] | Plant response rating, Galium [7, 14] | Plant response rating, Galium [7, 15] | Plant response rating, Galium [7, 19] | Chickweed plant response rating [8, 13] | Plant response rating, Chickweed [8, 14] | Plant response rating, Chickweed [8, 15] | Plant response rating, Chickweed [8, 16] | Plant response rating, Chickweed [8, 17] | Plant response rating, Chickweed [8, 18] | Plant response rating, Chickweed [8, 19] | Buckwheat, Wild plant response rating [9, 13] | Plant response rating, Buckwheat, Wild [9, 14] | Plant response rating, Buckwheat, Wild [9, 15] | Plant response rating, Buckwheat, Wild [9, 19] | Plant response rating, Foxtail, Green [11, 15] | Plant response rating, Foxtail, Green [11, 17] | Plant response rating, Foxtail, Green [11, 18]
55: Plant response rating (scale of 0 to 100), Ryegrass, Italian ([2]; Preemergence) | Plant response rating (scale of 0 to 100), Blackgrass ([3]; Preemergence)
85: Ryegrass, Italian plant response rating [2, 13] | Plant response rating, Ryegrass, Italian [2, 17] | Plant response rating, Blackgrass [3, 15] | Plant response rating, Blackgrass [3, 18] | Plant response rating, Canarygrass [6, 19] | Plant response rating, Galium [7, 17] | Plant response rating, Russian Thistle [12, 19] | Plant response rating, Kochia (kochia (Kochia scoparia); [19])
70: Plant response rating, Blackgrass [3, 17]
35: Plant response rating, Russian Thistle [12, 18]
